Reference: PMC8599513, “Efficient biosynthesis of nucleoside cytokinin angustmycin A containing an unusual sugar system” (Nature Communications, 2021)

Key:
AgmE = target: T1, AgmE (Streptomyces angustmyceticus, UniProt A0A5J4LCM7); test: HPLC and LC-MS, AMP formation; format: biochemical; conditions: 1 mM Mg2+, 50 mM PBS pH 7.5, 30 °C
T1 construct: gene San01_08850; recombinant, overexpressed in and purified from E. coli BL21(DE3)
T1 sequence (A0A5J4LCM7 1-178): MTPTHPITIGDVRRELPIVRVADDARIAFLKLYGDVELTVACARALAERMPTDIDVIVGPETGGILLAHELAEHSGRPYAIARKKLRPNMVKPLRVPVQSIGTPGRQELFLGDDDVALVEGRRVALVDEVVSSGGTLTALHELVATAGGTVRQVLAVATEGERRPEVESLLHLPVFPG

AgmA = target: T2, AgmA (Streptomyces angustmyceticus, UniProt A0A5J4L869); test: HPLC and LC-MS, adenine release; format: biochemical; conditions: 50 mM Tris-Cl pH 7.5, 1 mM substrate, 30 °C, 2 h
T2 construct: gene San01_08890; recombinant, overexpressed in and purified from E. coli BL21(DE3)
T2 sequence (A0A5J4L869 1-193): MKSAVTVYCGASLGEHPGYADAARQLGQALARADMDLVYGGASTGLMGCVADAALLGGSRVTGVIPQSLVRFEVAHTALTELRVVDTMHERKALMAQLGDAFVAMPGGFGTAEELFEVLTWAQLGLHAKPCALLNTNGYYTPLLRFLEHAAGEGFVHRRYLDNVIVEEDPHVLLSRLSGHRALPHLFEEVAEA

AgmF = tested on: T3, AgmF; test: HPLC dehydration assay; format: biochemical, Streptomyces angustmyceticus; conditions: dehydration to angustmycin A; kinetic assay conditions only in supplement
T3 construct: recombinant, overexpressed in and purified from E. coli BL21(DE3)

Nc1ncnc2[nH]cnc12 [adenine]
HPLC and LC-MS, AMP formation (AgmE; co-substrate PRPP 1 mM, methods print adenosine instead of adenine): assayed in vitro with the substrates adenine and phosphoribosyl pyrophosphate (PRPP)

Nc1ncnc2c1ncn2[C@@H]1O[C@H](COP(=O)(O)O)[C@@H](O)[C@H]1O [AMP]
HPLC and LC-MS, adenine release (AgmA): AgmA is capable of consuming AMP/dAMP as a substrate

O=P(O)(O)OC[C@H]1O[C@H](OP(=O)(O)OP(=O)(O)O)[C@H](O)[C@@H]1O [PRPP]
HPLC and LC-MS, AMP formation (AgmE; co-substrate adenine): assayed in vitro with the substrates adenine and phosphoribosyl pyrophosphate (PRPP)

Nc1ncnc2c1ncn2[C@H]1C[C@H](O)[C@@H](COP(=O)(O)O)O1 [dAMP]
HPLC and LC-MS, adenine release (AgmA): AgmA is capable of consuming AMP/dAMP as a substrate

Nc1ncnc2c1ncn2[C@]1(CO)O[C@H](CO)[C@@H](O)[C@H]1O [compound 2, angustmycin C]
Km (AgmF): 1380 ± 121 µM
